Data from patent US20250122174A1 (Shenzhen Yuanli Shenwan Innovative Medicine Co., Ltd., priority 2022, published 2025).

Biological target: HPK1 (Homo sapiens (Human), UniProt Q92918)
Assay: HPK1 Inhibition Assay (ADP-Glo kinase assay)
Format: biochemical
Conditions: ATP 10 μM
Outline: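 ADP-Glo luminescence read-out after 1 h room-temperature kinase reaction with 10 μM ATP and 0.1 μg/ml MBP. Recombinant human HPK1 at 7.5 ng/μl; buffer 40 mM Tris pH 7.5, 20 mM MgCl2. Compounds serially diluted 5-fold over 10 points from 10 mM DMSO stock.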

Chain of HPK1 (Q92918 1-346 limits assumed): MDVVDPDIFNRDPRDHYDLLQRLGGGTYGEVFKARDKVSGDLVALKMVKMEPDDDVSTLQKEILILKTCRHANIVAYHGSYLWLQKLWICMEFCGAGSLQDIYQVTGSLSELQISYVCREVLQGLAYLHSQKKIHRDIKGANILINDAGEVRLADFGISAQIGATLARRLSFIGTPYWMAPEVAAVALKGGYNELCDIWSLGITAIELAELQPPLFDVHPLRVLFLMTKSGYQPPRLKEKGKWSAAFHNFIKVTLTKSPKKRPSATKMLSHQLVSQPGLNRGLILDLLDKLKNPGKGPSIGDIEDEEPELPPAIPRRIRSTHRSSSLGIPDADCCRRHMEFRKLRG

## C[C@@H]1CN(c2c(NC(=O)c3ccc(=O)n(-c4c(F)cccc4F)n3)ccc3nn(C45CC6CC(CC(C6)C4)C5)cc23)C[C@@H]1N [Example 305, N-(2-((3S,5S,7S)-adamantan-1-yl)-4-((3R,4R)-3-amino-4-methylpyrrolidin-1-yl)-2H-indazol-5-yl)-1-(2,6-difluorophenyl)-6-oxo-1,6-dihydropyridazine-3-carboxamide]
  IC50: < 100 nM

## C[C@@H]1CN(c2c(NC(=O)c3ccc(=O)n(-c4c(F)cccc4F)n3)ccc3nn(C45CCC(CC4)C5)cc23)C[C@@H]1N [Example 306, N-(4-((3R,4R)-3-amino-4-methylpyrrolidin-1-yl)-2-(bicyclo[2.2.1]heptan-1-yl)-2H-indazol-5-yl)-1-(2,6-difluorophenyl)-6-oxo-1,6-dihydropyridazine-3-carboxamide]
  IC50: < 100 nM

## C[C@@H]1CN(c2c(NC(=O)c3ccc(=O)n(-c4c(F)cccc4F)n3)ccc3nn(C4CC(F)(F)C4)cc23)C[C@@H]1N [Example 307, N-(4-((3R,4R)-3-amino-4-methylpyrrolidin-1-yl)-2-(3,3-difluorocyclobutyl)-2H-indazol-5-yl)-1-(2,6-difluorophenyl)-6-oxo-1,6-dihydropyridazine-3-carboxamide]
  IC50: < 100 nM

## C[C@@H]1CN(c2c(NC(=O)c3ccc(=O)n(-c4c(F)cccc4F)n3)ccc3nn(C4CCN(C)CC4)cc23)C[C@@H]1N [Example 308, N-(4-((3R,4R)-3-amino-4-methylpyrrolidin-1-yl)-2-(1-methylpiperidin-4-yl)-2H-indazol-5-yl)-1-(2,6-difluorophenyl)-6-oxo-1,6-dihydropyridazine-3-carboxamide]
  IC50: < 100 nM

## C[C@H]1CN(c2c(NC(=O)c3ccc(=O)n(-c4c(F)cccc4F)n3)ccc3nn(C4CC(F)(F)C4)cc23)C[C@@H]1N [Example 309, N-(4-((3R,4S)-3-amino-4-methylpyrrolidin-1-yl)-2-(3,3-difluorocyclobutyl)-2H-indazol-5-yl)-1-(2,6-difluorophenyl)-6-oxo-1,6-dihydropyridazine-3-carboxamide]
  IC50: < 100 nM

## C[C@H]1CN(c2c(NC(=O)c3ccc(=O)n(-c4c(F)cccc4F)n3)ccc3nn(C4(C)CC4)cc23)C[C@@H]1N [Example 310, N-(4-((3R,4S)-3-amino-4-methylpyrrolidin-1-yl)-2-(1-methylcyclopropyl)-2H-indazol-5-yl)-1-(2,6-difluorophenyl)-6-oxo-1,6-dihydropyridazine-3-carboxamide]
  IC50: < 100 nM

## CC1(n2cc3c(N4C[C@H](N)C5(CC5)C4)c(NC(=O)c4ccc(=O)n(-c5c(F)cccc5F)n4)ccc3n2)CC1 [Example 311, (R)-N-(4-(7-amino-5-azaspiro[2.4]heptan-5-yl)-2-(1-methylcyclopropyl)-2H-indazol-5-yl)-1-(2,6-difluorophenyl)-6-oxo-1,6-dihydropyridazine-3-carboxamide]
  IC50: < 100 nM

## C[C@H]1CN(c2c(NC(=O)c3ccc(=O)n(-c4c(F)cccc4F)n3)ccc3nn(C45CCC(CC4)C5)cc23)C[C@@H]1N [Example 312, N-(4-((3R,4S)-3-amino-4-methylpyrrolidin-1-yl)-2-(bicyclo[2.2.1]heptan-1-yl)-2H-indazol-5-yl)-1-(2,6-difluorophenyl)-6-oxo-1,6-dihydropyridazine-3-carboxamide]
  IC50: < 100 nM

## C[C@@H]1CN(c2c(NC(=O)c3ccc(=O)n(-c4c(F)cccc4F)n3)ccc3nn(C4(C(F)(F)F)CC4)cc23)C[C@@H]1N [Example 315, N-(4-((3R,4R)-3-amino-4-methylpyrrolidin-1-yl)-2-(1-(trifluoromethyl)cyclopropyl)-2H-indazol-5-yl)-1-(2,6-difluorophenyl)-6-oxo-1,6-dihydropyridazine-3-carboxamide]
  IC50: < 100 nM

## C[C@@H]1CN(c2c(NC(=O)c3ccc(=O)n(-c4c(F)cccc4F)n3)ccc3nn(C45CC(C4)C5)cc23)C[C@@H]1N [Example 316, N-(4-((3R,4R)-3-amino-4-methylpyrrolidin-1-yl)-2-(bicyclo[1.1.1]pentan-1-yl)-2H-indazol-5-yl)-1-(2,6-difluorophenyl)-6-oxo-1,6-dihydropyridazine-3-carboxamide]
  IC50: < 100 nM

## C[C@@H]1CN(c2c(NC(=O)c3ccc(=O)n(-c4c(F)cccc4F)n3)ccc3nn(C4(C)CCC4)cc23)C[C@@H]1N [Example 317, 1-(2,6-difluorophenyl)-N-{4-[(3R,4R)-3-amino-4-methyltetrahydro-1H-pyrrol-1-yl]-2-(methylcyclobutyl)indazol-5-yl}-6-oxo-1,2-diazine-3-carboxamide]
  IC50: < 100 nM

## C[C@@H]1CN(c2c(NC(=O)c3ccc(=O)n(-c4c(F)cccc4F)n3)ccc3nn(C45CC(C)(C4)C5)cc23)C[C@@H]1N [Example 318, N-(4-((3R,4R)-3-amino-4-methylpyrrolidin-1-yl)-2-(3-methylbicyclo[1.1.1]pentan-1-yl)-2H-indazol-5-yl)-1-(2,6-difluorophenyl)-6-oxo-1,6-dihydropyridazine-3-carboxamide]
  IC50: < 100 nM

## C[C@@H]1CN(c2c(NC(=O)c3ccc(=O)n(-c4c(F)cccc4F)n3)ccc3nn(C45CC(C(F)(F)F)(C4)C5)cc23)C[C@@H]1N [Example 319, N-(4-((3R,4R)-3-amino-4-methylpyrrolidin-1-yl)-2-(3-(trifluoromethyl)bicyclo[1.1.1]pentan-1-yl)-2H-indazol-5-yl)-1-(2,6-difluorophenyl)-6-oxo-1,6-dihydropyridazine-3-carboxamide]
  IC50: < 100 nM

## C[C@H]1CN(c2c(NC(=O)c3ccc(=O)n(-c4c(F)cccc4F)n3)ccc3nn(C45CC(C4)C5)cc23)C[C@@H]1N [Example 320, N-(4-((3R,4S)-3-amino-4-methylpyrrolidin-1-yl)-2-(bicyclo[1.1.1]pentan-1-yl)-2H-indazol-5-yl)-1-(2,6-difluorophenyl)-6-oxo-1,6-dihydropyridazine-3-carboxamide]
  IC50: < 100 nM

## C[C@H]1CN(c2c(NC(=O)c3ccc(=O)n(-c4c(F)cccc4F)n3)ccc3nn(C4(C)CCC4)cc23)C[C@@H]1N [Example 321, N-(4-((3R,4S)-3-amino-4-methylpyrrolidin-1-yl)-2-(1-methylcyclobutyl)-2H-indazol-5-yl)-1-(2,6-difluorophenyl)-6-oxo-1,6-dihydropyridazine-3-carboxamide]
  IC50: < 100 nM

## CC1(C)CN(c2c(NC(=O)c3ccc(=O)n(-c4c(F)cccc4F)n3)ccc3nn([C@@H]4CCOC4)cc23)C[C@@H]1N [Example 322, N-(4-((R)-4-amino-3,3-dimethylpyrrolidin-1-yl)-2-((R)-tetrahydrofuran-3-yl)-2H-indazol-5-yl)-1-(2,6-difluorophenyl)-6-oxo-1,6-dihydropyridazine-3-carboxamide]
  IC50: < 100 nM

## CC1(C)CN(c2c(NC(=O)c3ccc(=O)n(-c4c(F)cccc4F)n3)ccc3nn([C@@H]4CCOC4)cc23)C[C@H]1N [Example 323, N-(4-((S)-4-amino-3,3-dimethylpyrrolidin-1-yl)-2-((R)-tetrahydrofuran-3-yl)-2H-indazol-5-yl)-1-(2,6-difluorophenyl)-6-oxo-1,6-dihydropyridazine-3-carboxamide]
  IC50: < 100 nM

## CC1(C)CN(c2c(NC(=O)c3ccc(=O)n(-c4c(F)cccc4F)n3)ccc3nn([C@H]4CCOC4)cc23)C[C@@H]1N [Example 324, N-(4-((R)-4-amino-3,3-dimethylpyrrolidin-1-yl)-2-((S)-tetrahydrofuran-3-yl)-2H-indazol-5-yl)-1-(2,6-difluorophenyl)-6-oxo-1,6-dihydropyridazine-3-carboxamide]
  IC50: < 100 nM
